Test results as given in BindingDB's records for doi:10.1021/jm990967h (Glaxo Wellcome Medicines Research Centre, 2000).
pKi: −log10 of the molar value. Values joined by “and” are separate entries in the source; they are usually repeats but may differ in a detail not shown here. Equal entries are not always repeated.

Target: Gastrin/cholecystokinin type B receptor (Cavia porcellus)
Assay: In vitro inhibition of binding of [3H]pCCK-8 against Cholecystokinin type B receptor of guinea pig cerebral cortex membranes

Structure (SMILES)	pKi
CC(C)Cn1nnc(-c2cccc(NC(=O)NC3C(=O)N(CCC(C)(C)C)c4ccccc4N(c4ccccc4)C3=O)c2)n1 (stereo not given)	8.60
CC(C)(C)CCN1C(=O)C(NC(=O)Nc2ccccc2)C(=O)N(c2ccccc2)c2ccccc21 (stereo not given)	9.17
CN(C)c1ccc(NC(=O)NC2C(=O)N(CCC3CCCC3)c3ccccc3N(c3ccccc3F)C2=O)cc1 (stereo not given)	8.33
O=C(Nc1ccccc1)NC1C(=O)N(CCC2CCCC2)c2ccccc2N(c2ccccc2F)C1=O (stereo not given)	9.14
CC(C)CC(C)N1C(=O)C(NC(=O)Nc2ccccc2)C(=O)N(c2ccccc2)c2ccccc21 (stereo not given)	8.68
CC(C)(C)CCN1C(=O)C(NC(=O)Nc2ccccc2)C(=O)N(c2ccccc2F)c2ccccc21 (stereo not given)	9.02
CC(O)C(O)Nc1cccc(NC(=O)NC2C(=O)N(CC34C[C@H]5C[C@@H](C3)C[C@@H](C4)C5)c3ccccc3N(c3ccccc3)C2=O)c1 (stereo not given in full)	8.89 and 9.17
CC(C)(C)CCN1C(=O)C(NC(=O)Nc2cccc(OC(F)(F)F)c2)C(=O)N(c2ccccc2)c2ccccc21 (stereo not given)	8.54
CCOC(=O)c1cccc(NC(=O)NC2C(=O)N(CC34C[C@H]5C[C@@H](C3)C[C@@H](C4)C5)c3ccccc3N(c3ccccc3)C2=O)c1 (stereo not given in full)	8.52
O=C(Nc1ccccc1)NC1C(=O)N(CC2[C@H]3C[C@@H]4C[C@@H](C[C@H]2C4)C3)c2ccccc2N(c2ccccc2)C1=O (stereo not given in full)	8.72
O=C(Nc1ccc(O)cc1)NC1C(=O)N(CC23C[C@H]4C[C@@H](C2)C[C@@H](C3)C4)c2ccccc2N(c2ccccc2)C1=O (stereo not given in full)	9.18
O=C(Nc1cccc(CO)c1)NC1C(=O)N(CC23C[C@H]4C[C@@H](C2)C[C@@H](C3)C4)c2ccccc2N(c2ccccc2)C1=O (stereo not given in full)	9.75
CC(C)(C1CCCC1)N1C(=O)C(NC(=O)Nc2cccc(C3N=NN=N3)c2)C(=O)N(c2ccccc2)c2ccccc21 (stereo not given)	8.82
CN(C)c1cccc(NC(=O)NC2C(=O)N(c3ccccc3)c3ccccc3N(C3CC4CCC3C4)C2=O)c1 (stereo not given)	9.00
CN(C)c1cccc(NC(=O)NC2C(=O)N(CC34C[C@H]5C[C@@H](C3)C[C@@H](C4)C5)c3ccccc3N(c3ccccc3)C2=O)c1 (stereo not given in full)	8.96
CC(C)CCN1C(=O)C(NC(=O)Nc2ccccc2)C(=O)N(c2ccccc2F)c2ccccc21 (stereo not given)	8.11
CC(C)CCN1C(=O)C(NC(=O)Nc2cccc(N(C)C)c2)C(=O)N(c2ccccc2F)c2ccccc21 (stereo not given)	9.68 and 8.72 and 9.60
CN(C)c1cccc(NC(=O)NC2C(=O)N(c3ccccc3)c3ccccc3N(C3[C@H]4C[C@@H]5C[C@@H](C[C@H]3C5)C4)C2=O)c1 (stereo not given in full)	8.64
CN(C)c1cccc(NC(=O)NC2C(=O)N(CCC34C[C@H]5C[C@@H](C3)C[C@@H](C4)C5)c3ccccc3N(c3ccccc3)C2=O)c1 (stereo not given in full)	7.89
CC(C)(C)CCN1C(=O)C(NC(=O)Nc2cccc(C#N)c2)C(=O)N(c2ccccc2)c2ccccc21 (stereo not given)	9.19
O=C(Nc1cccc([N+](=O)[O-])c1)NC1C(=O)N(CC23C[C@H]4C[C@@H](C2)C[C@@H](C3)C4)c2ccccc2N(c2ccccc2)C1=O (stereo not given in full)	8.72
O=C(Nc1cccc(Cl)c1)NC1C(=O)N(c2ccccc2)c2ccccc2N(C2CC3CCC2C3)C1=O (stereo not given)	8.77
CC(=O)Nc1cccc(NC(=O)NC2C(=O)N(CC34C[C@H]5C[C@@H](C3)C[C@@H](C4)C5)c3ccccc3N(c3ccccc3)C2=O)c1 (stereo not given in full)	8.89

Structure (SMILES)	pKi
O=Cc1cccc(NC(=O)NC2C(=O)N(CC34C[C@H]5C[C@@H](C3)C[C@@H](C4)C5)c3ccccc3N(c3ccccc3)C2=O)c1 (stereo not given in full)	9.02
CSc1cccc(NC(=O)NC2C(=O)N(CCC(C)(C)C)c3ccccc3N(c3ccccc3)C2=O)c1 (stereo not given)	9.31
O=C(Nc1ccccc1)NC1C(=O)N(CCc2ccccc2)c2ccccc2N(c2ccccc2)C1=O (stereo not given)	8.08
O=C(Nc1ccccc1)NC1C(=O)N(CCC23C[C@H]4C[C@@H](C2)C[C@@H](C3)C4)c2ccccc2N(c2ccccc2)C1=O (stereo not given in full)	7.47
CC(C)(C)CCN1C(=O)C(NC(=O)Nc2cccc(C3N=NN=N3)c2)C(=O)N(c2ccccc2)c2ccccc21 (stereo not given)	9.54
CCCCN1C(=O)C(NC(=O)Nc2ccccc2)C(=O)N(c2ccccc2)c2ccccc21 (stereo not given)	8.21
O=C(Nc1cccc(O)c1)NC1C(=O)N(CC23C[C@H]4C[C@@H](C2)C[C@@H](C3)C4)c2ccccc2N(c2ccccc2)C1=O (stereo not given in full)	9.24
CN(C)c1cccc(NC(=O)NC2C(=O)N(CCC(C)(C)C)c3ccccc3N(c3ccccc3F)C2=O)c1 (stereo not given)	9.22
O=C(Nc1cccc(C(=O)OCCN2CCOCC2)c1)NC1C(=O)N(CC23C[C@H]4C[C@@H](C2)C[C@@H](C3)C4)c2ccccc2N(c2ccccc2)C1=O (stereo not given in full)	9.25
O=C(Nc1ccccc1)NC1C(=O)N(c2ccccc2)c2ccccc2N(C2CC3CCC2C3)C1=O (stereo not given)	8.82
CSc1cccc(NC(=O)NC2C(=O)N(CCC(C)(C)C)c3ccccc3N(c3ccccc3F)C2=O)c1 (stereo not given)	9.14
O=C(Nc1cccc(C2N=NN=N2)c1)NC1C(=O)N(c2ccccc2)c2ccccc2N(C2[C@H]3C[C@@H]4C[C@@H](C[C@H]2C4)C3)C1=O (stereo not given in full)	8.68
CN(C)c1cccc(NC(=O)NC2C(=O)N(CCC3CCCC3)c3ccccc3N(c3ccccc3F)C2=O)c1 (stereo not given)	9.17
O=C(Nc1ccc(Br)cc1)NC1C(=O)N(CC23C[C@H]4C[C@@H](C2)C[C@@H](C3)C4)c2ccccc2N(c2ccccc2)C1=O (stereo not given in full)	8.85
CCOC(=O)CCCOc1ccc(NC(=O)NC2C(=O)N(CC34C[C@H]5C[C@@H](C3)C[C@@H](C4)C5)c3ccccc3N(c3ccccc3)C2=O)cc1 (stereo not given in full)	8.28
CSc1cccc(NC(=O)NC2C(=O)N(CCC(C)C)c3ccccc3N(c3ccccc3F)C2=O)c1 (stereo not given)	9.48
Nc1cccc(NC(=O)NC2C(=O)N(CC34C[C@H]5C[C@@H](C3)C[C@@H](C4)C5)c3ccccc3N(c3ccccc3)C2=O)c1 (stereo not given in full)	9.53
O=C(Nc1cccc(C(=O)O)c1)NC1C(=O)N(CC23C[C@H]4C[C@@H](C2)C[C@@H](C3)C4)c2ccccc2N(c2ccccc2)C1=O (stereo not given in full)	9.01
O=C(Nc1cccc(C2N=NN=N2)c1)NC1C(=O)N(CCC2CCCC2)c2ccccc2N(c2ccccc2F)C1=O (stereo not given)	9.65
O=C(O)CCCOc1ccc(NC(=O)NC2C(=O)N(CC34C[C@H]5C[C@@H](C3)C[C@@H](C4)C5)c3ccccc3N(c3ccccc3)C2=O)cc1 (stereo not given in full)	8.42
CSc1cccc(NC(=O)NC2C(=O)N(CCC34C[C@H]5C[C@@H](C3)C[C@@H](C4)C5)c3ccccc3N(c3ccccc3)C2=O)c1 (stereo not given in full)	7.22
CC(C)C(C)CN1C(=O)C(NC(=O)Nc2ccccc2)C(=O)N(c2ccccc2)c2ccccc21 (stereo not given)	8.96
